Assay results as given in patent publication US20230285570A1, “THERAPEUTICALLY USEFUL CURE-PRO MOLECULES FOR E3 LIGASE MEDIATED DEGRADATION OF PROTEINS, AND METHODS OF MAKING AND USING THEM” (CORNELL UNIVERSITY, priority 2020, published 2023).
“Also recorded” adds a separate entry of the source.

Key:
SLC19A1 = experiment: RT-PCR of c-MYC downstream target gene SLC19A1 in HeLa cells; type: cell-based, Human; conditions: single compound, HeLa, 10 μM, 24 h
Description: The suppression of the expression of the downstream c-MYC target, SLC19A1, was measured by RT-PCR using Power SYBR® Green Cells-to-Ct™ Kit (Life Technologies). Adherent cells were plated on 96 well plates at 5,000 cells per well were treated for 24 h with monomer compounds and compounds capable of reversible interactions (1 nM-100 μM). Cells were subsequently washed in ice-cold PBS processed according to the manufacturer's instructions. Quantitative real-time PCR was performed using a ViiA™ 7 Real-time PCR System (Applied Biosystems, Foster City, Calif., USA). GAPDH and ACTB served as internal controls.
HeLa cells (1×10^4) were treated for 24 hours in 96 well plates with the compounds solubilized in DMSO. Compounds were added at 10 μM each and RNA expression measured by the Cells-to Ct method described above (Thermofisher).

Aiolos and Ikaros [1] = experiment: Aiolos and Ikaros expression in Namalwa cells, Western blot; type: cell-based; conditions: monomer alone, 100 nM-10 μM, 24 h
Description: (§1) Namalwa, Ramosm HeLa, MCF7, or HT29 HCT116 cells (2.5-3×10^6) were treated for 24 hours with the indicated compounds solubilized in DMSO. The cells were washed in ice-cold PBS and were then lysed in RIPA lysis buffer (150 mM NaCl, 5 mM EDTA, 1% NP-40, 0.5% sodium deoxycholate, 0.1% SDS, 50 mM Tris, pH 8.0.) with Roche protease inhibitor complete cocktail and phosphatase inhibitors (10 mM sodium fluoride, 10 mM sodium pyrophosphate, 1 mM sodium orthovanadate and 20 mM β-glycerophosphate). The total protein concentrations were determined by Bradford Protein Assay (Pierce) and 10-20 μg of protein was loaded onto 4-15% Tris-Glycine gradient gels (Biorad). After standard gel electrophoresis, the separated proteins were transferred to PVDF membrane by wet transfer. The immunoblots were then blocked for 1 hour in 5% skim milk in TBST or 5% BSA in TBST, according to manufacturer's instructions, before an overnight incubation at 4° C. with indicated antibodies and membranes. Membranes were then incubated with the appropriate horseradish peroxidase-conjugated secondary antibodies (1:5,000 dilution) for 1 h at room temperature and the bands were visualized using the Clarity Max Western ECL Substrate (Biorad) and the ChemiDoc Imaging System (Biorad). Signal was detected with ECL Western Blotting Substrate (Pierce) and X-ray film processed with a Konica SRX-101 X-ray film processor or captured by Bio-Rad's Chemidoc Imaging system.
(§2) Namalwa (FIG. 78) or Ramos (FIG. 79) cells (5×10^6) were treated for 24 h with the compounds solubilized in DMSO. Compounds were added at 100 nM-10 μM each. Standardized protein samples were electrophoresed and imaged as described in the immunoblotting section above. FIGS. 78 and 79 depict the effects of the E3 ubiquitin ligase CURE-PRO monomer ligands (100 nM-10 μM, 24 h) targeting Cereblon on the expression of Aiolos and Ikaros, two downstream proteins that are known to be ubiquitinated and degraded after IMiDs bind to CRBN.

Aiolos and Ikaros [2] = experiment: Aiolos and Ikaros expression in Ramos cells, Western blot; type: cell-based; conditions: monomer alone, 100 nM-10 μM, 24 h
Description: as §1, §2

c-MYC [3] = biological target: T1, c-MYC (Homo sapiens, UniProt P01106); experiment: CURE-PRO-mediated c-MYC degradation in HCT1116 cells, Western blot or WES; type: cell-based; set-up: endogenous in cells; host or cells: HT29
T1 sequence (P01106 whole entry): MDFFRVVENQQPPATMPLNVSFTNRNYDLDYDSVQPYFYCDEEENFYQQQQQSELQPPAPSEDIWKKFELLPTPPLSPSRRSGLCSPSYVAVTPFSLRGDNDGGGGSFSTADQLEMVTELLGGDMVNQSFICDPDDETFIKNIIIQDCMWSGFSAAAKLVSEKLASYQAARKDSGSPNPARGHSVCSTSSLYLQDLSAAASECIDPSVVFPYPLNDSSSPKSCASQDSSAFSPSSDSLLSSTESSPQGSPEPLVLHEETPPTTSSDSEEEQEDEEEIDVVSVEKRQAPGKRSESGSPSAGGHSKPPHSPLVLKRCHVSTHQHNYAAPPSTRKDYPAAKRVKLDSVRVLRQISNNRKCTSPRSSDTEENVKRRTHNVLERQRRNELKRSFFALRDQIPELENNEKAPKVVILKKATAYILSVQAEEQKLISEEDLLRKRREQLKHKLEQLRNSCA
Description: as §1
(§3) WES Simple analysis was performed on WES system (ProteinSimple-Biotechne) according to the manufacturer's instructions. Total protein concentrations of cell lysates were determined by the Pierce BCA kit (Thermo Fisher). 3 μL of 0.3 μg/μL of the protein lysate was loaded onto a 12- to 230-kDa WES assay plate (ProteinSimple) where 300 nL sample was withdrawn through a capillary, subjected to electrophoretic separation of proteins by size, and followed by the simultaneous, HRP-based detection of proteins using the Anti-Rabbit Detection Module (Proteinsimple: #DM-001). The electropherograms were checked then the automatic peak detection was manually corrected if it was required.
HCT1116 cells (2.5×10^6) were treated for 24 h with the compounds solubilized in DMSO. Compounds were added at 10 nM-10 μM each. Standardized protein samples were electrophoresed and imaged as described in the immunoblotting or WES (Proteinsimple) sections above. c-MYC monomers, MYC-N20 (FIG. 100, a 10074-G5 derivative comprising diol linkers), and MYC-N10 (FIG. 101), MYC-N6 (FIG. 102), and MYC-N9 (FIG. 103) (10058-F4 derivatives comprising diol linkers), and MDM2 ligands, 8310 and 8312 (Nutlin 3a derivatives comprising boronic acid linkers) were combined in a 1:1 ratio.
HCT1116 cells (2.5×10^6) were treated for 24 h with the compounds solubilized in DMSO. Compounds were added at 1 μM-10 μM each.

c-MYC [4] = biological target: T1, c-MYC; experiment: Summary of C-MYC degradation by CURE-PRO pairs, estimated from Western Blot or WES; type: cell-based; set-up: endogenous in cells; host or cells: HT29
Description: as §1, §3
A black check mark indicates efficacy of 30% to 70% or higher protein degradation.

c-MYC [5] = biological target: T1, c-MYC; experiment: CURE-PRO-mediated c-MYC degradation in MCF7 cells, WES (ProteinSimple); type: cell-based; set-up: endogenous in cells
Description: as §3
Compounds were added at 1 μM-10 μM each. Standardized protein samples were electrophoresed and imaged as detected on a WES capillary electrophoresis instrument (Proteinsimple), as described above. c-MYC monomers, MYC-N5 (FIG. 94) and MYC-N2 (FIG. 95) (10058-F4 derivatives comprising diol linkers), and VHL ligands, 8297 and 8298 (VH-298 derivatives comprising boronic acid linkers) were combined in a 1:1 ratio.

MV-4-11 cells = experiment: CellTiter-Glo cell viability, MV-4-11 cells; type: cell-based; conditions: monomer alone, MV-4-11, 24 h, 1 nM-100 μM
Description: CellTiter-Glo® 2.0 Cell Viability Assay (Promega) was carried out following the manufacturer's recommendations. Cells were seeded at a density of 1000 cells/well in a white 96 well plates (Corning, #3917) in a total volume of 100 μl with respective monomers, combinations of BRD ligands together with E3 ligase ligands or vehicle control treatment. After a 72 h incubation, 100 ul of the CellTiter-Glo® substrate was added per well and luminescence was read on a Spectramax M5 (Molecular Devices). Dose-response curves were generated using Graphpad Prism software.
MV-4-11 cells (5×10^4) were treated for 24 hours with the sample compounds solubilized in DMSO. The compounds were added at 1 nM-100 μM each. Cellular viability was determined using the CellTiter-Glo® Luminescent Cell Viability Assay (Promega) described above. FIGS. 19-22 depict the CURE-PRO-mediated loss of cellular viability for BRD monomers (JQ1 derivatives comprising of catechol linkers), and CRBN ligand, 8049 (pomalidomide derivatives comprising boronic acid linkers) combined in a 1:1 ratio.
MV-4-11 cells (1×10^4) were treated for 72 hours with the compounds solubilized in DMSO. Compounds were added at 10 nM-100 μM each. Cellular viability was determined using the CellTiter-Glo® Luminescent Cell Viability Assay (Promega) described above. FIGS. 47-54 depict the CURE-PRO-mediated loss of cellular viability for BRD monomers (JQ1 derivatives comprising of boronic acid linkers), and CRBN ligands, 8046, 8047 and 8066 (pomalidomide derivatives comprising diol linkers) combined in a 1:1 ratio.

[6] = 1:1 with VHL ligand 8297, MCF7, 24 h, 1 μM-10 μM each
[7] = 1:1 with VHL ligand 8298, MCF7, 24 h, 1 μM-10 μM each
[8] = c-MYC monomer alone, MCF7, 24 h, 1 μM-10 μM

## Cc1sc2c(c1C)C(c1ccc(Cl)cc1)=N[C@@H](CC(=O)Nc1ccc(OCCOCCOCCOCCNc3cccc4c3C(=O)N(C3CCC(=O)NC3=O)C4=O)cc1)c1nnc(C)n1-2 (stereo partly shown) [ARV-825, reference compound]
SLC19A1
  suppression of SLC19A1 expression: Complete suppression; also recorded: completely suppressed

## O=C1CCC(N2C(=O)c3cccc(CNC(=O)c4ccc(O)c(O)c4)c3C2=O)C(=O)N1 (stereo not shown) [compound 8046, N-((2-(2,6-dioxopiperidin-3-yl)-1,3-dioxoisoindolin-4-yl)methyl)-3,4-dihydroxybenzamide]
Aiolos and Ikaros [1]
  expression of Aiolos and Ikaros: largely maintain Aiolos and Ikaros expression levels
Aiolos and Ikaros [2]
  expression of Aiolos and Ikaros: largely maintain Aiolos and Ikaros expression levels

## CCc1ccc(/C=C2\SC(=O)N(CCOCCNC(=O)c3cccc(B(O)O)c3)C2=O)cc1 [MYC-E4]
c-MYC [3]; 1:1 with MDM2 ligand 8313, HCT1116, 24 h, 1 μM-10 μM each
  c-MYC degradation: had no effect
c-MYC [3]; 1:1 with MDM2 ligand 8314, HCT1116, 24 h, 1 μM-10 μM each
  c-MYC degradation: caused degradation of c-MYC protein at 10 μM; also recorded: Degradation was noted
c-MYC [3]; monomer dosed alone, HCT1116, 24 h
  c-MYC degradation: No loss of c-MYC protein was noted
c-MYC [4]; Table 7, aryl-boronic acid MYC ligand + 8047
  Degradation of C-MYC, combination with CRBN ligand 8047: √ (A black check mark indicates efficacy of 30% to 70% or higher protein degradation)
c-MYC [4]; Table 8, aryl-boronic acid MYC ligand + 8314
  Degradation of C-MYC, combination with MDM2 ligand 8314: √ (A black check mark indicates efficacy of 30% to 70% or higher protein degradation)

## CCc1ccc(/C=C2\SC(=O)N(CCCc3ccc(O)c(O)c3)C2=O)cc1 [MYC-N5]
c-MYC [5]; [6]
  c-MYC degradation: no loss of c-MYC protein was observed
c-MYC [5]; [7]
  c-MYC degradation: Degradation is observed; also recorded: caused degradation of c-MYC
c-MYC [5]; [8]
  c-MYC degradation: no loss of c-MYC protein was observed
c-MYC [4]; Table 10, aromatic 1,2-diol MYC ligand + 8049
  Degradation of C-MYC, combination with CRBN ligand 8049: √ (A black check mark indicates efficacy of 30% to 70% or higher protein degradation)

## O=C1CCC(N2C(=O)c3cccc(CNC(=O)C4C[C@H]5C[C@@H]4[C@H](O)[C@@H]5O)c3C2=O)C(=O)N1 (stereo in doubt) [compound 8066, (1S,4R,5R,6S)—N-((2-(2,6-dioxopiperidin-3-yl)-1,3-dioxoisoindolin-4-yl)methyl)-5,6-dihydroxybicyclo[2.2.1]heptane-2-carboxamide]
Aiolos and Ikaros [1]
  expression of Aiolos and Ikaros: largely maintain Aiolos and Ikaros expression levels
Aiolos and Ikaros [2]
  expression of Aiolos and Ikaros: largely maintain Aiolos and Ikaros expression levels

## CCc1ccc(/C=C2\SC(=O)N(Cc3cccc(O)c3O)C2=O)cc1 [MYC-N2]
c-MYC [5]; [6]
  c-MYC degradation: Degradation is observed; also recorded: caused degradation of c-MYC
c-MYC [5]; [7]
  c-MYC degradation: no loss of c-MYC protein was observed
c-MYC [5]; [8]
  c-MYC degradation: no loss of c-MYC protein was observed
c-MYC [4]; Table 10, aromatic 1,2-diol MYC ligand + 8048
  Degradation of C-MYC, combination with CRBN ligand 8048: √ (A black check mark indicates efficacy of 30% to 70% or higher protein degradation)

## O=C1CCC(N2C(=O)c3cccc(CNC(=O)c4ccc(B(O)O)cc4)c3C2=O)C(=O)N1 (stereo not shown) [compound 8048]
Aiolos and Ikaros [1]
  expression of Aiolos and Ikaros: largely maintain Aiolos and Ikaros expression levels
Aiolos and Ikaros [2]
  expression of Aiolos and Ikaros: largely maintain Aiolos and Ikaros expression levels

## O=C1CCC(N2C(=O)c3cccc(CNC(=O)c4cccc(O)c4O)c3C2=O)C(=O)N1 (stereo not shown) [compound 8047, N-((2-(2,6-dioxopiperidin-3-yl)-1,3-dioxoisoindolin-4-yl)methyl)-2,3-dihydroxybenzamide]
Aiolos and Ikaros [1]
  expression of Aiolos and Ikaros: largely maintain Aiolos and Ikaros expression levels
Aiolos and Ikaros [2]
  expression of Aiolos and Ikaros: largely maintain Aiolos and Ikaros expression levels

## O=C1CCC(N2C(=O)c3cccc(CNC(=O)c4cccc(B(O)O)c4)c3C2=O)C(=O)N1 (stereo not shown) [compound 8049]
MV-4-11 cells
  loss of cellular viability: little loss of viability was observed
Aiolos and Ikaros [1]
  expression of Aiolos and Ikaros: largely maintain Aiolos and Ikaros expression levels
Aiolos and Ikaros [2]
  expression of Aiolos and Ikaros: largely maintain Aiolos and Ikaros expression levels

## Nc1cccc2c1C(=O)N(C1CCC(=O)NC1=O)C2=O (stereo not shown) [Pomalidomide, pomalidomide, reference compound]
SLC19A1
  suppression of SLC19A1 expression: no suppression
Aiolos and Ikaros [1]
  expression of Aiolos and Ikaros: caused greater loss of Aiolos and Ikaros protein than the CURE-PRO derivatives at equimolar concentrations
Aiolos and Ikaros [2]
  expression of Aiolos and Ikaros: caused greater loss of Aiolos and Ikaros protein than the CURE-PRO derivatives at equimolar concentrations
